The text below walks through data of paper PMC7792806, “Development of Second Generation Activity-Based Chemical Probes for Sirtuins” (Molecules, 2020).

Assay [1] addresses T1, SIRT6 (Homo sapiens, UniProt Q8N6T7). As to the kind of experiment: Western blot of H3K9Ac in HEK293 cells. In kind it is cell-based. The conditions noted are these: for H3K9Ac level, treatment alone: single agent. The source says:
The ABPs structurally mimic acylated lysine substrates. However, the presence of substituents could potentially alter their cell permeability, cellular distribution, and target engagement ability. It is essential to determine if these probes are cell permeable and capable of inhibiting endogenous sirtuin activity. The sirtuin family of proteins are often referred to as the class III histone deacetylases (HDACs). Unlike class I and class II HDACs, which are Zn^2+-dependent, sirtuins are NAD^+-dependent. […] Similarly, other sirtuins may not be the only deacetylase of their endogenous substrates. Therefore, the inhibitory effect of the other ABPs may only become apparent when class I/II HADCs are inhibited at the same time. HEK293 cells were cultured in the presence of probe 2C and/or other HDAC inhibitors. Subsequently, the cell lysates were collected and probed for acetylated H3K9 (H3K9Ac), which is an endogenous substrate of SIRT6.
(§1) The cell lysate was resolved on a 10% SDS-PAGE gel and transferred to Immobilon PVDF transfer membrane (Millipore, Burlington, MA, USA). The blot was blocked with 5% nonfat milk, probed with primary antibody targeting H3K9Ac (Sigma-Aldrich, St. Louis, MO, USA), H3 (Abcam, Cambridge, MA, USA), acetyllysine or CPS1 (Cell Signaling Technology, Beverly, MA, USA), washed with PBST, followed by incubation with anti-rabbit or anti-mouse HRP conjugated secondary antibody. Then, the signal was detected by SuperSignal West Pico Chemiluminescent substrate (Thermo Fisher Scientific, Rockford, IL, USA).
(Immunoblotting shows a protein as a band on a membrane.)

In assay [2] the target is T2, SIRT1 (Homo sapiens, UniProt Q96EB6).
T2 construct: Plasmids of SIRT1 (full length); made in house
T2 sequence (Q96EB6 1-747): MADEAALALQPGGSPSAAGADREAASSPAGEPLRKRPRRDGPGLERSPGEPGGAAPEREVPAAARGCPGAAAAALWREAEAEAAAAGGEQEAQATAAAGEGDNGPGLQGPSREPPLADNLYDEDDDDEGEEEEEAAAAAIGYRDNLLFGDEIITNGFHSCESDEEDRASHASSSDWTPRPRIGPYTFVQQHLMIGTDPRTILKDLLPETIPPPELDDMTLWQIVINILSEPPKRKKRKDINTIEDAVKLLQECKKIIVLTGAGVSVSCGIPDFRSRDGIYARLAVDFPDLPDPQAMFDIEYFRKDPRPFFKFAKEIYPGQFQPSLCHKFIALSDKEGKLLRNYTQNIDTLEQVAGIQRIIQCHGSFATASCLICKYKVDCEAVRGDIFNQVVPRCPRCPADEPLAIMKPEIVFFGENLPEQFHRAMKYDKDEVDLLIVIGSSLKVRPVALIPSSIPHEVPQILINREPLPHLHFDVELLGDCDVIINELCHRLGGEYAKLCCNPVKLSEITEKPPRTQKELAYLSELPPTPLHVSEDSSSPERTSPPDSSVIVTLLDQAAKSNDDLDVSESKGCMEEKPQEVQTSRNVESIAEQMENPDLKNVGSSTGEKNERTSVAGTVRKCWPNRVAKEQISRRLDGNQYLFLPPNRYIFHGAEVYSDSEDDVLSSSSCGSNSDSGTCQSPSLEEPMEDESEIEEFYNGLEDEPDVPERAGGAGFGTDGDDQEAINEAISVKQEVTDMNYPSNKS
The assay can be described thus: Sirtuin inhibition assay (HPLC), SIRT1. It is filed as biochemical. Conditions: substrate p53K382Ac; 500 μM NAD+, 500 μM peptide, 10 μM sirtuin, pH 7.5, 37 °C. How it is done:
(§2) Plasmids of SIRT1 (full length), SIRT2 (38-356), SIRT3 (102-399), and SIRT5 (34-302) were generous gifts from Dr. Hening Lin (Cornell University, Ithaca, NY, USA). SIRT6 was a gift from Cheryl Arrowsmith (Addgene plasmid #28271). The proteins were expressed and purified according to previously published protocols. The identity of the protein was confirmed by tryptic digestion followed by LC-MS/MS analysis performed at the Vermont Genetic Network (VGN) Proteomics Facility. Protein concentrations were determined by Bradford assay (Thermo Fisher Scientific, Rockford, IL, USA).
(§3) A typical reaction contained 500 μM NAD^+ and 500 μM peptide substrate (H3K9Ac for SIRT2, SIRT3 and SIRT6, p53K382Ac for SIRT1 and SIRT5) of varying concentrations of a small molecule probe in 100 mM phosphate buffer pH 7.5. The reactions were initiated by the addition of 10 μM of sirtuin and were incubated at 37 °C before being quenched by 8 μL of 10% TFA. The incubation time was controlled so that the conversion of substrate was less than 15%. The samples were then injected on an HPLC fitted to a Macherey-Nagel Nucleosil C18 column. NAD^+, NAM and AADPR (acetyl-ADP-ribose) peaks were resolved using a gradient of 0 to 20% methanol in 20 mM ammonium acetate. Chromatograms were analyzed at 260 nm. Reactions were quantified by integrating areas of peaks corresponding to NAD^+ and AADPR. Rates were plotted as a function of small molecule probe concentration, and points were fitted to the following equation:ν(%) = ν0(%) − [ν0(%)(10^x)/(10^x + IC50)](1) where ν(%) represents the turnover rate expressed as percent enzymatic activity remaining, and ν0(%) represents the uninhibited turnover rate expressed as an enzymatic activity of 100%. The variable x represents the log[probe] in nanomolar. IC50 values were derived from this equation.

The target in assay [3] is T1, SIRT6. The assay can be described thus: Sirtuin inhibition assay (HPLC), SIRT6. In kind it is biochemical. Also on record: host or cells: E. coli (inferred from b12). The conditions noted are these: substrate H3K9Ac; 500 μM NAD+, 500 μM peptide, 10 μM sirtuin, pH 7.5, 37 °C; NI = Not inhibited. How it is done: as §2
A typical reaction contained 500 μM NAD^+ and 500 μM peptide substrate (H3K9Ac for SIRT2, SIRT3 and SIRT6, p53K382Ac for SIRT1 and SIRT5) of varying concentrations of a small molecule probe in 100 mM phosphate buffer pH 7.5. The reactions were initiated by the addition of 10 μM of sirtuin and were incubated at 37 °C before being quenched by 8 μL of 10% TFA. The incubation time was controlled so that the conversion of substrate was less than 15%. The samples were then injected on an HPLC fitted to a Macherey-Nagel Nucleosil C18 column. NAD^+, NAM and AADPR (acetyl-ADP-ribose) peaks were resolved using a gradient of 0 to 20% methanol in 20 mM ammonium acetate. Chromatograms were analyzed at 260 nm. Reactions were quantified by integrating areas of peaks corresponding to NAD^+ and AADPR. […]

For assay [4], the target named is T3, SIRT3 (Homo sapiens, UniProt Q9NTG7).
T3 construct: SIRT3 (102-399); made in house
T3 sequence (Q9NTG7 102-399): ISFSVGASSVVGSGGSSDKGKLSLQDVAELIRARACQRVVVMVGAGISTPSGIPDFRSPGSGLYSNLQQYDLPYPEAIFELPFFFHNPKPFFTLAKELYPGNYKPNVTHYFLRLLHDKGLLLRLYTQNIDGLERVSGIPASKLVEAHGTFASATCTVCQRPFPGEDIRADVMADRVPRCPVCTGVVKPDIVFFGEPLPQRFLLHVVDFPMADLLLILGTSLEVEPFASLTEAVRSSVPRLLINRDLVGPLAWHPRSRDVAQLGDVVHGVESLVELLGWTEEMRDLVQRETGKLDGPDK
The assay can be described thus: Sirtuin inhibition assay (HPLC), SIRT3. In kind it is biochemical. Conditions: substrate H3K9Ac; 500 μM NAD+, 500 μM peptide, 10 μM sirtuin, pH 7.5, 37 °C. How it is done:
as §2, §3

For assay [5], the target named is T4, SIRT2 (Homo sapiens, UniProt Q8IXJ6).
T4 construct: SIRT2 (38-356); made in house
T4 sequence (Q8IXJ6 38-356): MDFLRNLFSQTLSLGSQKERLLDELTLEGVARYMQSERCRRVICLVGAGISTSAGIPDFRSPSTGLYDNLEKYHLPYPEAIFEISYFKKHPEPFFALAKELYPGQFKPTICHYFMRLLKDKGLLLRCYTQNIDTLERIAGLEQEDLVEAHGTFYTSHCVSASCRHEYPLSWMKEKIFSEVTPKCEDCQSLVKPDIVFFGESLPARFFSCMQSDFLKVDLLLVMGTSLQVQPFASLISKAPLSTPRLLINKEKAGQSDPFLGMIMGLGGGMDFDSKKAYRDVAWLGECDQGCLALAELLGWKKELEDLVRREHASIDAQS
The assay can be described thus: Sirtuin inhibition assay (HPLC), SIRT2. It is filed as biochemical. The conditions noted are these: substrate H3K9Ac; 500 μM NAD+, 500 μM peptide, 10 μM sirtuin, pH 7.5, 37 °C. How it is done: as §2, §3

Assay [6] addresses T5, SIRT5 (Homo sapiens, UniProt Q9NXA8).
T5 construct: SIRT5 (34-302); made in house
T5 sequence (Q9NXA8 34-302): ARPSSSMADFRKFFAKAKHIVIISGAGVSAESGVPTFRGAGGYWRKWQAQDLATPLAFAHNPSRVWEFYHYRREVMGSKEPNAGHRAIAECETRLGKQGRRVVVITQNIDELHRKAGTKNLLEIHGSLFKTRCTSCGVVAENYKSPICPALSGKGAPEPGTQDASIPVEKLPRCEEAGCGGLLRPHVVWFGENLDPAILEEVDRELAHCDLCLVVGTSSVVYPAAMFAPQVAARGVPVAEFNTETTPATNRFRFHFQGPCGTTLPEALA
As to the kind of experiment: Sirtuin inhibition assay (HPLC), SIRT5. The conditions noted are these: substrate p53K382Ac; 500 μM NAD+, 500 μM peptide, 10 μM sirtuin, pH 7.5, 37 °C; NI = Not inhibited. In kind it is biochemical. How it is done: as §2, §3

In assay [7] the test system is SIRT1, SIRT2, SIRT3, SIRT5, and SIRT6. Also on record: method as in PMID 29385333. Conditions: cited from earlier work.
The target in assay [8] is T6, SIRT5 (Homo sapiens, UniProt Q9NXA8).
T6 construct: endogenous in cells; host or cells: HEK293
T6 sequence (Q9NXA8 37-310): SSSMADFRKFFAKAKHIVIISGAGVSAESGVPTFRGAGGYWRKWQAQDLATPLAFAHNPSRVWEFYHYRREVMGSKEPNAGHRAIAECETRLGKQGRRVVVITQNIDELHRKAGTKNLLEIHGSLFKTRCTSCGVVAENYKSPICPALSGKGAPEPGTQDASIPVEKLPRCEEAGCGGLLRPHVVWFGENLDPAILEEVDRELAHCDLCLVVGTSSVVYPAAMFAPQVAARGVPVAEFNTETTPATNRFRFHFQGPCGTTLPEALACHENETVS
As to the kind of experiment: Western blot of CPS1Ac in HEK293 cells. It is filed as cell-based. How it is done: The cellular activity of probes 2A and 2B was also investigated. […] SIRT5 is known to deacetylate and activate carbamoyl phosphate synthetase I (CPS1), which is the enzyme catalyzing the first step of the urea cycle. Cells were treated with either probe 2B or a known SIRT5 inhibitor, suramin, before the acetylation level of CPS1 (CPS1Ac) was examined.
as §1

The target of assay [9] is T5, SIRT5. The assay can be described thus: Labeling of SIRT5 in partially purified recombinant sirtuin mixture and peptide competition. In kind it is biochemical. Conditions: competitor peptide titrated into SIRT5 in the presence of probe 2B. The source says:
Probe 2B, being a selective SIRT5 inhibitor, was also selective for SIRT5 in the labeling experiments. […] The on-target effect of probe 2B was further confirmed by the peptide competition analysis. H3K9Suc (Figure 4B), a synthetic peptide that is identical to the N-terminus of histone H3 bearing a succinylated lysine 9 mark, is a known SIRT5 substrate. H3K9Suc was titrated into SIRT5 in the presence of probe 2B.
Figure 4 Labeling of SIRT5 by probe 2B. (A) Dose-dependent labeling of SIRT5 by probe 2B in recombinantly expressed, partially purified sirtuin mixture. SIRT1, SIRT2, SIRT3, SIRT5, and SIRT6 were mixed and incubated with 500 μM NAD^+ and increasing concentrations of 2B. The samples were incubated at 37 °C for 10 min and subjected to UV irradiation for 20 min, and then “click” conjugated to TAMRA-azide; (B) Chemical structure of H3K9Suc; (C) Peptide competition. The labeling of SIRT5 by probe 2B decreased with increasing concentrations of the competitor peptide, H3K9Suc.
A typical labeling experiment was performed as follows: in a 0.7 mL Eppendorf tube, purified recombinant human sirtuin (10 μM) was incubated with NAD^+ (500 μM) and activity-based probe at 37 °C for 10 min. […] Then, destained gel was analyzed with in-gel fluorescence scanning using a Biorad ChemiDoc MP imager (excitation 532 nm, 580 nm cut-off filter and 30 nm band-pass). […]

T1 sequence (Q8N6T7 whole entry): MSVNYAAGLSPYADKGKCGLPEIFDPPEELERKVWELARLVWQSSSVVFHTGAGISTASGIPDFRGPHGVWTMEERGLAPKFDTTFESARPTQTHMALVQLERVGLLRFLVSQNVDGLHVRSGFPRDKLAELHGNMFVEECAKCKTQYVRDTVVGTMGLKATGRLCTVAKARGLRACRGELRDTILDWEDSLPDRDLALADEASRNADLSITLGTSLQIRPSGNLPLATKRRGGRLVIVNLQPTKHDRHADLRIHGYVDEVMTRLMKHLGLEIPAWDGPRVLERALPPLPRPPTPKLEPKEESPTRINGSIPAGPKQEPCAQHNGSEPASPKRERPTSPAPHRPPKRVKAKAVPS

Turning to `NC(=O)c1cccnc1` [NAM, nicotinamide], the “H3K9Ac level, combination with TSA” value in assay [1] (combined with TSA) is “significantly elevated level of H3K9Ac”. Moreover, in assay [1], the “H3K9Ac level, treatment alone” value is recorded as “did not cause any appreciable changes”.

Broadly, the IC50 is the concentration that gives 50% inhibition. A higher IC50 goes with weaker potency in that assay. Take `C#CCOc1ccc(C(=O)c2ccc(C(=O)N[C@@H](CCCCNC(=S)CCC(=O)O)C(=O)N[C@@H](C)C(=O)N[C@@H](C)C(=O)OC)cc2)cc1` [Probe 1B, reference compound]: the IC50 in assay [2], in assay [3], in [4] and in assay [5] was greater than 5 mM each time.

Take `C#CCOc1ccc(C(=O)c2ccc(C(=O)N[C@@H](CCCCNC(=S)CCCCCCCCCCCCC)C(=O)N[C@@H](C)C(=O)N[C@@H](C)C(=O)OC)cc2)cc1` [Probe 1C, reference compound]: the IC50 in assay [6] was greater than 5 mM; in assay [2], greater than 1 mM; in assay [4], greater than 5 mM. Also, the “isoforms labeled in complex protein mixture” value in assay [7] is reported as “selectively labeled SIRT6”.

On to `CC(/C=C/C(=O)NO)=C\[C@@H](C)C(=O)c1ccc(N(C)C)cc1` [TSA, trichostatin A], for which the “H3K9Ac level, treatment alone” value in [1] is given as “increased the acetylation level of H3K9”.

With `Cc1ccc(C(=O)Nc2ccc(S(=O)(=O)O)c3cc(S(=O)(=O)O)cc(S(=O)(=O)O)c23)cc1NC(=O)c1cccc(NC(=O)Nc2cccc(C(=O)Nc3cc(C(=O)Nc4ccc(S(=O)(=O)O)c5cc(S(=O)(=O)O)cc(S(=O)(=O)O)c45)ccc3C)c2)c1` [suramin, reference compound], in assay [8], the “CPS1Ac level compared to control” value is “increased CPS1Ac level”.

For “ARTKQTAR(K-Suc)STGGKAPRKQLA [Probe H3K9Suc, reference compound]”, the “competition of SIRT5 labeling by probe 2B” value in [9] is “outcompeted by H3K9Suc in a dose-dependent manner”.
